Measured values: the NIST ThermoML archive (doi:10.1016/j.tca.2004.11.034)
± gives the expanded uncertainty stated by the source.

Tests used:
[1] = xn = mol fraction of the nth substance listed; details: 101.33 kPa, Liquid; for speed of sound: Anton Paar DSA 48; for mass density: Vibrating tube method
[2] = excess molar enthalpy (molar enthalpy of mixing); xn = mol fraction of the nth substance listed; details: 298.15 K, 101.33 kPa, Liquid, Flow calorimetry
[3] = 101.33 kPa, Liquid; for speed of sound: Anton Paar DSA 48; for mass density: Vibrating tube method

CC(C)(C)Cl [2-chloro-2-methylpropane] + CC1CCCO1
speed of sound ([1]; 298.15 K, x2 = 0.0505): 993.8 ± 1.4 m/s
speed of sound ([1]; 298.15 K, x2 = 0.108): 1006.1 ± 1.4 m/s
speed of sound ([1]; 298.15 K, x2 = 0.2065): 1027.5 ± 1.4 m/s
speed of sound ([1]; 298.15 K, x2 = 0.3136): 1050.9 ± 1.4 m/s
speed of sound ([1]; 298.15 K, x2 = 0.4125): 1072.6 ± 1.4 m/s
speed of sound ([1]; 298.15 K, x2 = 0.5156): 1095.2 ± 1.4 m/s
speed of sound ([1]; 298.15 K, x2 = 0.6124): 1116.5 ± 1.4 m/s
speed of sound ([1]; 298.15 K, x2 = 0.7107): 1138.2 ± 1.4 m/s
speed of sound ([1]; 298.15 K, x2 = 0.8031): 1158.7 ± 1.4 m/s
speed of sound ([1]; 298.15 K, x2 = 0.9022): 1180.6 ± 1.4 m/s
speed of sound ([1]; 298.15 K, x2 = 0.9476): 1190.7 ± 1.4 m/s
mass density ([1]; 298.15 K, x2 = 0.0505): 837.22 ± 0.44 kg/m3
mass density ([1]; 298.15 K, x2 = 0.108): 838.65 ± 0.44 kg/m3
mass density ([1]; 298.15 K, x2 = 0.2065): 840.58 ± 0.44 kg/m3
mass density ([1]; 298.15 K, x2 = 0.3136): 842.3 ± 0.44 kg/m3
mass density ([1]; 298.15 K, x2 = 0.4125): 843.81 ± 0.44 kg/m3
mass density ([1]; 298.15 K, x2 = 0.5156): 845.26 ± 0.44 kg/m3
mass density ([1]; 298.15 K, x2 = 0.6124): 846.46 ± 0.44 kg/m3
mass density ([1]; 298.15 K, x2 = 0.7107): 847.59 ± 0.44 kg/m3
mass density ([1]; 298.15 K, x2 = 0.8031): 848.42 ± 0.44 kg/m3
mass density ([1]; 298.15 K, x2 = 0.9022): 848.98 ± 0.44 kg/m3
mass density ([1]; 298.15 K, x2 = 0.9476): 849.12 ± 0.44 kg/m3
speed of sound ([1]; 313.15 K, x2 = 0.0517): 932.6 ± 1.4 m/s
speed of sound ([1]; 313.15 K, x2 = 0.0895): 941.2 ± 1.4 m/s
speed of sound ([1]; 313.15 K, x2 = 0.195): 964 ± 1.4 m/s
speed of sound ([1]; 313.15 K, x2 = 0.3015): 986.5 ± 1.4 m/s
speed of sound ([1]; 313.15 K, x2 = 0.3969): 1006.8 ± 1.4 m/s
speed of sound ([1]; 313.15 K, x2 = 0.4986): 1028.7 ± 1.4 m/s
speed of sound ([1]; 313.15 K, x2 = 0.605): 1051.5 ± 1.4 m/s
speed of sound ([1]; 313.15 K, x2 = 0.6978): 1071.1 ± 1.4 m/s
speed of sound ([1]; 313.15 K, x2 = 0.7998): 1092 ± 1.4 m/s
speed of sound ([1]; 313.15 K, x2 = 0.8947): 1111.7 ± 1.4 m/s
speed of sound ([1]; 313.15 K, x2 = 0.949): 1123.7 ± 1.4 m/s
mass density ([1]; 313.15 K, x2 = 0.0517): 819.88 ± 0.43 kg/m3
mass density ([1]; 313.15 K, x2 = 0.0895): 820.9 ± 0.43 kg/m3
mass density ([1]; 313.15 K, x2 = 0.195): 823.23 ± 0.44 kg/m3
mass density ([1]; 313.15 K, x2 = 0.3015): 825.36 ± 0.44 kg/m3
mass density ([1]; 313.15 K, x2 = 0.3969): 827.1 ± 0.44 kg/m3
mass density ([1]; 313.15 K, x2 = 0.4986): 828.77 ± 0.44 kg/m3
mass density ([1]; 313.15 K, x2 = 0.605): 830.31 ± 0.44 kg/m3
mass density ([1]; 313.15 K, x2 = 0.6978): 831.4 ± 0.44 kg/m3
mass density ([1]; 313.15 K, x2 = 0.7998): 832.45 ± 0.44 kg/m3
mass density ([1]; 313.15 K, x2 = 0.8947): 833.18 ± 0.44 kg/m3
mass density ([1]; 313.15 K, x2 = 0.949): 833.54 ± 0.44 kg/m3
excess molar enthalpy ([2]; x2 = 0.057): -0.014 ± 0.001 kJ/mol
excess molar enthalpy ([2]; x2 = 0.104): -0.03 ± 0.001 kJ/mol
excess molar enthalpy ([2]; x2 = 0.201): -0.061 ± 0.001 kJ/mol
excess molar enthalpy ([2]; x2 = 0.298): -0.083 ± 0.002 kJ/mol
excess molar enthalpy ([2]; x2 = 0.398): -0.101 ± 0.002 kJ/mol
excess molar enthalpy ([2]; x2 = 0.497): -0.109 ± 0.002 kJ/mol
excess molar enthalpy ([2]; x2 = 0.597): -0.106 ± 0.002 kJ/mol
excess molar enthalpy ([2]; x2 = 0.696): -0.095 ± 0.002 kJ/mol
excess molar enthalpy ([2]; x2 = 0.799): -0.077 ± 0.002 kJ/mol
excess molar enthalpy ([2]; x2 = 0.901): -0.044 ± 0.001 kJ/mol
excess molar enthalpy ([2]; x2 = 0.954): -0.023 ± 0.001 kJ/mol

CC(C)(C)Cl [2-chloro-2-methylpropane]
speed of sound ([3]; 298.15 K): 983.1 ± 1.4 m/s
mass density ([3]; 298.15 K): 835.67 ± 0.44 kg/m3
mass density ([3]; 313.15 K): 818.43 ± 0.43 kg/m3
speed of sound ([3]; 333.15 K): 920.3 ± 1.4 m/s
